Assay results: patent US20020164348A1 (priority 2000, published 2002)

Assays:
[1] = biological target: poliovirus polymerase (Poliovirus type 1, UniProt P03300)
[2] = biological target: rhinovirus polymerase (Human rhinovirus 14, UniProt P03303); format: biochemical
[3] = biological target: poliovirus RNA-dependent RNA polymerase 3Dpol WT (Poliovirus type 1 (Mahoney), UniProt P03300 P03300:1749-2209); test: filter; settings: tags: none stated, expressed in E. coli BL21(DE3) pLysS, N-terminal Met removed; label: 32P (alpha-32P CTP, T7 transcript); 20 bp blunt self-complementary duplex
[4] = biological target: T1, pJG-poliovirus 3D prey fusion (pJGPolio3D) (poliovirus Mahoney type 1, UniProt P03300 1749-2209); test: yeast two-hybrid, colour on X-gal plates (- white); bait in row, prey in column
T1 sequence: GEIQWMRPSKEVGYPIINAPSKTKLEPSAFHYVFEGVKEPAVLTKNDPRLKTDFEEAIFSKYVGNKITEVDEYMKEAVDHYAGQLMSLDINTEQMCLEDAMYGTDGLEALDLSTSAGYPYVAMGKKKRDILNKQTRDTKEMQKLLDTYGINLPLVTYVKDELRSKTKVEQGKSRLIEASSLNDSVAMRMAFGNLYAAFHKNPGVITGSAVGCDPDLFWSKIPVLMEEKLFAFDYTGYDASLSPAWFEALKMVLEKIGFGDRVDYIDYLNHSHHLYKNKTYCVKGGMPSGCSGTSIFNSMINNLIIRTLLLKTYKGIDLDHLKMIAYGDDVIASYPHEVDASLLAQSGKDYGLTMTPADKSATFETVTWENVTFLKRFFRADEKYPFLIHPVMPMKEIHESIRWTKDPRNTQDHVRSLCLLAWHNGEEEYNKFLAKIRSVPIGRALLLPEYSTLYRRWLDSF

Chain of rhinovirus polymerase (P03303 1720-2179 limits assumed): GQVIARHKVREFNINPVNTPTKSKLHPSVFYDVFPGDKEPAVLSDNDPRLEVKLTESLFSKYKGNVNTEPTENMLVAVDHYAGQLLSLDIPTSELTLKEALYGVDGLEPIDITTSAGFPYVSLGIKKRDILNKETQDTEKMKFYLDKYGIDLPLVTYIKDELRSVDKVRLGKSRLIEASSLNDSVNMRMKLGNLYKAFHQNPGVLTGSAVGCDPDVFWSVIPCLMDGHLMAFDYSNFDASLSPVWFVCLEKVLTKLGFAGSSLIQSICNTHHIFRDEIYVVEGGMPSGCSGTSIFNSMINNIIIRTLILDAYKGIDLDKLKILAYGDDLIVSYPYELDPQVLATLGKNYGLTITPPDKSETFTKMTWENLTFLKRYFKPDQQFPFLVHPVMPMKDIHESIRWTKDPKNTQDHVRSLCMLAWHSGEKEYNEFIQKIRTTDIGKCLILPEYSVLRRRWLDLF

[Cl-].[Cl-].[Zn+2] [ZnCl2]
effect on decrease in specific activity with decreasing polymerase concentration [1]: nearly eliminates the decrease in specific activity

KPHKCTFEGCRKSYSRSTNLRRHLNSH (SEQ ID NO:5) [Peptide 1]
activity of the rhinovirus polymerase [2]: inhibits

B1: 0.20 RNA (dsRNA)
RNA 1: GGCAGCUGCAUGCAGCUGCC
RNA 2: GGCAGCUGCAUGCAGCUGCC
binding result [3]: binds

B2: Lex202 vector control (bait vector without a polymerase) (other)
chain: MKALTARQQEVFDLIRDHISQTGMPPTRAEIAQRLGFRSPNAAEEHLKALARKGVIEIVSGASRGIRLLQEEEEGLPLVGRVAAGEPLLAQQHIEGHYQVDPSLFKPNADFLLRVSGMSMKDIGIMDGDLLAVHKTQDVRNGQVVVARIDDEVTVKRLKKQGNKVELLPENSEFKPIVVDLRQQSFTIEGLAVGVIRNGDWL
binding result [4]: no binding
